Source: the kinase profiling compilation of Christmann-Franck et al. (2016)

Columns and labels:
Test in all cases: KINOMEscan competition binding
Conditions in all cases: compound 10.0 µM
MST1R (human) = MST1R (human) (UniProt Q04912)
TGFBR2 (human) = TGFBR2 (human) (UniProt P37173)
STK39 (human) = STK39 (human) (UniProt Q9UEW8)
PIM3 (human) = PIM3 (human) (UniProt Q86V86)
ERBB4 (human) = ERBB4 (human) (UniProt Q15303)
RIOK3 (human) = RIOK3 (human) (UniProt O14730)
MAP4K4 (human) = MAP4K4 (human) (UniProt O95819)
EPHA2 (human) = EPHA2 (human) (UniProt P29317)
AXL (human) = AXL (human) (UniProt P30530)
FER (human) = FER (human) (UniProt P16591)
PHKG1 (human) = PHKG1 (human) (UniProt Q16816)
STK11 (human) = STK11 (human) (UniProt Q15831)
MAPK10 (human) = MAPK10 (human) (UniProt P53779)
RPS6KA5 KD1 (human) = RPS6KA5 KD1 (human) (UniProt O75582)
CAMK2B (human) = CAMK2B (human) (UniProt Q13554)
NEK2 (human) = NEK2 (human) (UniProt P51955)
BTK (human) = BTK (human) (UniProt Q06187)
CSNK1D (human) = CSNK1D (human) (UniProt P48730)
PRKD3 (human) = PRKD3 (human) (UniProt O94806)
RPS6KA1 KD1 (human) = RPS6KA1 KD1 (human) (UniProt Q15418)
MYLK4 (human) = MYLK4 (human) (UniProt Q86YV6)
STK32C (human) = STK32C (human) (UniProt Q86UX6)
ERN1 (human) = ERN1 (human) (UniProt O75460)
RPS6KB1 (human) = RPS6KB1 (human) (UniProt P23443)
BMP2K (human) = BMP2K (human) (UniProt Q9NSY1)
EPHB4 (human) = EPHB4 (human) (UniProt P54760)
[1] = system: ABL1 (human), P00519 [M351T]
[2] = system: KIT (human), P10721 [L576P]
MAP3K12 (human) = MAP3K12 (human) (UniProt Q12852)
RPS6KA4 KD1 (human) = RPS6KA4 KD1 (human) (UniProt O75676)
PIP5K1A (human) = PIP5K1A (human) (UniProt Q99755)
RPS6KA4 KD2 (human) = RPS6KA4 KD2 (human) (UniProt O75676)
CSNK1A1L (human) = CSNK1A1L (human) (UniProt Q8N752)
PLK4 (human) = PLK4 (human) (UniProt O00444)
[3] = system: FLT3 (human), P36888 [ITD]
PRKACA (human) = PRKACA (human) (UniProt P17612)
MAPK1 (human) = MAPK1 (human) (UniProt P28482)
PAK4 (human) = PAK4 (human) (UniProt O96013)
TNIK (human) = TNIK (human) (UniProt Q9UKE5)
ULK3 (human) = ULK3 (human) (UniProt Q6PHR2)
ROS1 (human) = ROS1 (human) (UniProt P08922)
TBK1 (human) = TBK1 (human) (UniProt Q9UHD2)
Sequence of TBK1 (human) (Q9UHD2 whole entry, looked up): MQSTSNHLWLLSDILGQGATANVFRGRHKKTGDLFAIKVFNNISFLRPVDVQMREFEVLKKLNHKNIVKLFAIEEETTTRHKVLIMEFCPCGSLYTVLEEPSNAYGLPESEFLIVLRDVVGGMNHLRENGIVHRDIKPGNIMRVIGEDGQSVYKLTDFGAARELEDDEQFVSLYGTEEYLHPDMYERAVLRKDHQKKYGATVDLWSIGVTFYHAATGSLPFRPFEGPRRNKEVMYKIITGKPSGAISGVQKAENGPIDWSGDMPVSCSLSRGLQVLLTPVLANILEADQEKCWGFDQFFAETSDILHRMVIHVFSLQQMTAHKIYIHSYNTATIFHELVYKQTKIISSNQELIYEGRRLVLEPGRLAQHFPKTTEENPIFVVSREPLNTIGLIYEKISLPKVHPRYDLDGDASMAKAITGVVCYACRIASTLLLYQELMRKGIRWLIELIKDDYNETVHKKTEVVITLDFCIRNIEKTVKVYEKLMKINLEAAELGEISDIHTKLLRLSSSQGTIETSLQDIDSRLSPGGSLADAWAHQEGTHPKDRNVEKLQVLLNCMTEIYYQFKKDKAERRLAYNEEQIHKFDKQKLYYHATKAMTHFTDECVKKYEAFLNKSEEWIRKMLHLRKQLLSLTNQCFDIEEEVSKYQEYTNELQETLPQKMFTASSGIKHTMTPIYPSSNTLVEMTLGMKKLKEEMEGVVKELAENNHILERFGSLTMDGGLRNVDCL

Sequence of MAPK10 (human) (P53779 whole entry, looked up): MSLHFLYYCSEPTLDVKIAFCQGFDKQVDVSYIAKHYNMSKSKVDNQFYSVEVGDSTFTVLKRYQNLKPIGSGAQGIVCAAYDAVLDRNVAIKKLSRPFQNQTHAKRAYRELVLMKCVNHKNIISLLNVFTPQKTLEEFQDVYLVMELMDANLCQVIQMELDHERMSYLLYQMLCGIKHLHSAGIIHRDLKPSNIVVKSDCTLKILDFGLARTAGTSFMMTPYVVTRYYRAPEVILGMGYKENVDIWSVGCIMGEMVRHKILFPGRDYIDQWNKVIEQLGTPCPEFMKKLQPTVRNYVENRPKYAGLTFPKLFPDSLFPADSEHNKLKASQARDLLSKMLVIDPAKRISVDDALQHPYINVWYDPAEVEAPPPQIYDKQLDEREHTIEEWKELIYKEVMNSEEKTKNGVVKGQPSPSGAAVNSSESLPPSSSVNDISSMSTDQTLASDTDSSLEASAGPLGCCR
Sequence of KIT (human), P10721 [L576P] (P10721 whole entry L576P, looked up): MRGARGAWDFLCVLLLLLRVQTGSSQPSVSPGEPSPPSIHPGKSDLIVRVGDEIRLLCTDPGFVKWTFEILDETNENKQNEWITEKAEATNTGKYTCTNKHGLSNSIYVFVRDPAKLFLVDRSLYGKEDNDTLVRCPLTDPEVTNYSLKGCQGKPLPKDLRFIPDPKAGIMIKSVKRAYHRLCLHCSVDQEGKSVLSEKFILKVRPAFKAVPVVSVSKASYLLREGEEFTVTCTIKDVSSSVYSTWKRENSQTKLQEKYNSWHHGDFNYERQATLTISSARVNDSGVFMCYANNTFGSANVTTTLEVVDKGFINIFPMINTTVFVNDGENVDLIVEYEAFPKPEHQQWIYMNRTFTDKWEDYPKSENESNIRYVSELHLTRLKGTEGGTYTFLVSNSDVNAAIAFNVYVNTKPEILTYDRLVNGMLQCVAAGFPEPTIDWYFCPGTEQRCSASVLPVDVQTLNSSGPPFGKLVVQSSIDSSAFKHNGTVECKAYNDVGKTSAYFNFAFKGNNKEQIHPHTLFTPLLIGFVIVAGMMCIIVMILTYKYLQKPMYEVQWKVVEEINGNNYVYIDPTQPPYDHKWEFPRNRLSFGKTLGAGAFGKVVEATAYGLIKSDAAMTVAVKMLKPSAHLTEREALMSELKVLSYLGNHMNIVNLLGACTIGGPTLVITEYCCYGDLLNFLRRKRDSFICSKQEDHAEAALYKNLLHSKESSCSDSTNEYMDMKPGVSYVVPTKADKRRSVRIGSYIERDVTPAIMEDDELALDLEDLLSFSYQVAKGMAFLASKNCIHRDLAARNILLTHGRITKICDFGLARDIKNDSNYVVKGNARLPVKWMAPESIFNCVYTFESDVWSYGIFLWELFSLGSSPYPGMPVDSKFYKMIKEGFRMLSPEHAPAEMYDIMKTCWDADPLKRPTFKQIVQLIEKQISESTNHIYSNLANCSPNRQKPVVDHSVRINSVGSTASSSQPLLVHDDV
Sequence of CSNK1D (human) (P48730 whole entry, looked up): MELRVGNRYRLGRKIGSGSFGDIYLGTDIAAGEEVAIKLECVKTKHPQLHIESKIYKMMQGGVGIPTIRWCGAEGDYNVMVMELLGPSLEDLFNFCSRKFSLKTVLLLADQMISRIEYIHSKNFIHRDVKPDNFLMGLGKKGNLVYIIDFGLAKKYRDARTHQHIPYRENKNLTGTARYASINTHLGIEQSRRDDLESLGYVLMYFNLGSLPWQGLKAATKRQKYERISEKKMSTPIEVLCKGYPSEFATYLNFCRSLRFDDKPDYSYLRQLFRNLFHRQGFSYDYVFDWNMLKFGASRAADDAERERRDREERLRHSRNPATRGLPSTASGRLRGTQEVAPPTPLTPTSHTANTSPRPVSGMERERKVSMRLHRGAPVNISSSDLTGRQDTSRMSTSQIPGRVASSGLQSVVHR
Sequence of MAP3K12 (human) (Q12852 whole entry, looked up): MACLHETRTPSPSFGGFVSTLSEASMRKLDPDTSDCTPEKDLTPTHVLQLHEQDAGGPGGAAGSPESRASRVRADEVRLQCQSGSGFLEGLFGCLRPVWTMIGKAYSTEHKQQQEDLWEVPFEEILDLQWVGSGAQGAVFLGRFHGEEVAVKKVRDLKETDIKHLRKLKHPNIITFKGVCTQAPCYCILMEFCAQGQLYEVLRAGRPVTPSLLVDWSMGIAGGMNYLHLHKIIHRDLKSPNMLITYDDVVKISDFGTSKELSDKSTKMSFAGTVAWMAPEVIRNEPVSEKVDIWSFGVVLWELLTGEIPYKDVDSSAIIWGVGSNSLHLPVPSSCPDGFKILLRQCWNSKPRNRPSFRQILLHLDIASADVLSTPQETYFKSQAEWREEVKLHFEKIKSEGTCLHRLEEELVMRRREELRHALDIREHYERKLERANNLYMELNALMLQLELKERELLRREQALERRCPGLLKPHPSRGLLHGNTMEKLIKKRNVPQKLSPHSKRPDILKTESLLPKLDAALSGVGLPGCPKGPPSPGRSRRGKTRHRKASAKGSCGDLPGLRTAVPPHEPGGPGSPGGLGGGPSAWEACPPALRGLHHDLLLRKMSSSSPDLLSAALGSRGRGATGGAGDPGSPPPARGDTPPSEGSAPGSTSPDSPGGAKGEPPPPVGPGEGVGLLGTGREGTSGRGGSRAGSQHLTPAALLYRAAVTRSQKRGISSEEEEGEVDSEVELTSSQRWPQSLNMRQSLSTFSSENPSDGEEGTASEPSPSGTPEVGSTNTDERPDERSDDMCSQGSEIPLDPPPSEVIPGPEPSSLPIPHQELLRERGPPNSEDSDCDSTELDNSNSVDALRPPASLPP
Sequence of NEK2 (human) (P51955 whole entry, looked up): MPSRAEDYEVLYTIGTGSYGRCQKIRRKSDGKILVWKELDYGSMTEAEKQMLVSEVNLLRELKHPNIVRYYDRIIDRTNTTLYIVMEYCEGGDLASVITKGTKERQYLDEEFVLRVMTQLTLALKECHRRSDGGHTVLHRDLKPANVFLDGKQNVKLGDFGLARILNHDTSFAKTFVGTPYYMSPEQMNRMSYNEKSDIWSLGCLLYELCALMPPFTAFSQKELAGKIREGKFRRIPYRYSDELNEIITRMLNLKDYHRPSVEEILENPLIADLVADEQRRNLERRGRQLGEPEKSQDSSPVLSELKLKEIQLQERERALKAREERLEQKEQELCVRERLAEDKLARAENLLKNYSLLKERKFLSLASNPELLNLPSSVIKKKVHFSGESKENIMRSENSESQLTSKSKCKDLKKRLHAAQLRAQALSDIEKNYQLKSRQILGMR
Sequence of CAMK2B (human) (Q13554 whole entry, looked up): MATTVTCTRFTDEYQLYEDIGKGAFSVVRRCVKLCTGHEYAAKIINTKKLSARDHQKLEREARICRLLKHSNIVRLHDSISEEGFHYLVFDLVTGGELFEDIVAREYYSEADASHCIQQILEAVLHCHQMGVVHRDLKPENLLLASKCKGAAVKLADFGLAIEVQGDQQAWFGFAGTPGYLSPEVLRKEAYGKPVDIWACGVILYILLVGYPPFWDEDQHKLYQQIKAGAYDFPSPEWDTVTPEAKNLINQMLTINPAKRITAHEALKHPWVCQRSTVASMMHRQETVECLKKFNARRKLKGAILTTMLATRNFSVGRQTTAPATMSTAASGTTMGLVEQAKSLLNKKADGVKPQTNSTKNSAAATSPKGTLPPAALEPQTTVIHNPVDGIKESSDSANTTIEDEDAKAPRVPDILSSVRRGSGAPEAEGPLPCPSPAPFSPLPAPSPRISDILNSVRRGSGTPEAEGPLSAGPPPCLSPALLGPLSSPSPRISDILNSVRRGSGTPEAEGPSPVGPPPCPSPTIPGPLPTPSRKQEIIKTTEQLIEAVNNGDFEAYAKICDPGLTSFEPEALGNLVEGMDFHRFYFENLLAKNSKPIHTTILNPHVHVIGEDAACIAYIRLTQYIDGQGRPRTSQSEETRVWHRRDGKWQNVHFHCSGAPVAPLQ
Sequence of MYLK4 (human) (Q86YV6 whole entry, looked up): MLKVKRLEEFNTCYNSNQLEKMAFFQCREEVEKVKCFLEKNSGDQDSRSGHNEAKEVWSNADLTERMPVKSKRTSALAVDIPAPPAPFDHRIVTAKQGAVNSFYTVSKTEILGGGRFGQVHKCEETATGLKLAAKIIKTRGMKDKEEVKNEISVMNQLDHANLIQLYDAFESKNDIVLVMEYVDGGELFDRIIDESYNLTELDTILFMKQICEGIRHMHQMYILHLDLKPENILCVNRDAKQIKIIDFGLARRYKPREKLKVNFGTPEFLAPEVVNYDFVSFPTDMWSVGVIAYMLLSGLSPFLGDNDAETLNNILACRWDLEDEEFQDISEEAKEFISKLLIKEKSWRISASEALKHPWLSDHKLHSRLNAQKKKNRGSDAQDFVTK

Question: Which kinase still bound, per cent of control (MST1R (human)) does the source give for `Cc1cc([C@@H](C)Nc2ccccc2C(=O)O)c2nc(N3CCOCC3)cc(=O)n2c1` here?
Answer: The kinase still bound, per cent of control was 96%.

Question: And the kinase still bound, per cent of control (TGFBR2 (human))?
Answer: Its kinase still bound, per cent of control is 100%.

Question: What about the kinase still bound, per cent of control (STK39 (human)) of the same compound?
Answer: Its kinase still bound, per cent of control is 58%.

Question: And the kinase still bound, per cent of control (PIM3 (human))?
Answer: The kinase still bound, per cent of control was 100%.

Question: And the kinase still bound, per cent of control (ERBB4 (human))?
Answer: Its kinase still bound, per cent of control is 94%.

Question: What about the kinase still bound, per cent of control (RIOK3 (human)) of the same compound?
Answer: The kinase still bound, per cent of control was 100%.

Question: What about the kinase still bound, per cent of control (MAP4K4 (human)) of the same compound?
Answer: Its kinase still bound, per cent of control is 98%.

Question: And the kinase still bound, per cent of control (EPHA2 (human))?
Answer: Its kinase still bound, per cent of control is 99%.

Question: And the kinase still bound, per cent of control (AXL (human))?
Answer: Its kinase still bound, per cent of control is 100%.

Question: What about the kinase still bound, per cent of control (FER (human)) of the same compound?
Answer: The kinase still bound, per cent of control was 81%.

Question: And the kinase still bound, per cent of control (PHKG1 (human))?
Answer: Its kinase still bound, per cent of control is 100%.

Question: What about the kinase still bound, per cent of control (STK11 (human)) of the same compound?
Answer: Its kinase still bound, per cent of control is 97%.

Question: What about the kinase still bound, per cent of control (MAPK10 (human)) of the same compound?
Answer: Its kinase still bound, per cent of control is 66%.

Question: What about the kinase still bound, per cent of control (RPS6KA5 KD1 (human)) of the same compound?
Answer: The kinase still bound, per cent of control was 100%.

Question: What about the kinase still bound, per cent of control (CAMK2B (human)) of the same compound?
Answer: Its kinase still bound, per cent of control is 89%.

Question: And the kinase still bound, per cent of control (NEK2 (human))?
Answer: The kinase still bound, per cent of control was 100%.

Question: And the kinase still bound, per cent of control (BTK (human))?
Answer: The kinase still bound, per cent of control was 80%.

Question: What about the kinase still bound, per cent of control (CSNK1D (human)) of the same compound?
Answer: The kinase still bound, per cent of control was 57%.

Question: And the kinase still bound, per cent of control (PRKD3 (human))?
Answer: Its kinase still bound, per cent of control is 85%.

Question: And the kinase still bound, per cent of control (RPS6KA1 KD1 (human))?
Answer: Its kinase still bound, per cent of control is 67%.

Question: What about the kinase still bound, per cent of control (MYLK4 (human)) of the same compound?
Answer: Its kinase still bound, per cent of control is 75%.

Question: And the kinase still bound, per cent of control (STK32C (human))?
Answer: The kinase still bound, per cent of control was 89%.

Question: And the kinase still bound, per cent of control (ERN1 (human))?
Answer: The kinase still bound, per cent of control was 100%.

Question: What about the kinase still bound, per cent of control (RPS6KB1 (human)) of the same compound?
Answer: The kinase still bound, per cent of control was 100%.

Question: What about the kinase still bound, per cent of control (BMP2K (human)) of the same compound?
Answer: Its kinase still bound, per cent of control is 100%.

Question: What about the kinase still bound, per cent of control (EPHB4 (human)) of the same compound?
Answer: The kinase still bound, per cent of control was 95%.

Question: And the kinase still bound, per cent of control [1]?
Answer: The kinase still bound, per cent of control was 100%.

Question: And the kinase still bound, per cent of control [2]?
Answer: The kinase still bound, per cent of control was 90%.

Question: What about the kinase still bound, per cent of control (MAP3K12 (human)) of the same compound?
Answer: The kinase still bound, per cent of control was 98%.

Question: And the kinase still bound, per cent of control (RPS6KA4 KD1 (human))?
Answer: The kinase still bound, per cent of control was 93%.

Question: And the kinase still bound, per cent of control (PIP5K1A (human))?
Answer: Its kinase still bound, per cent of control is 100%.

Question: And the kinase still bound, per cent of control (RPS6KA4 KD2 (human))?
Answer: Its kinase still bound, per cent of control is 83%.

Question: What about the kinase still bound, per cent of control (CSNK1A1L (human)) of the same compound?
Answer: The kinase still bound, per cent of control was 94%.

Question: And the kinase still bound, per cent of control (PLK4 (human))?
Answer: Its kinase still bound, per cent of control is 100%.

Question: What about the kinase still bound, per cent of control [3] of the same compound?
Answer: Its kinase still bound, per cent of control is 40%.

Question: And the kinase still bound, per cent of control (PRKACA (human))?
Answer: Its kinase still bound, per cent of control is 100%.

Question: What about the kinase still bound, per cent of control (MAPK1 (human)) of the same compound?
Answer: Its kinase still bound, per cent of control is 100%.

Question: What about the kinase still bound, per cent of control (PAK4 (human)) of the same compound?
Answer: The kinase still bound, per cent of control was 95%.

Question: What about the kinase still bound, per cent of control (TNIK (human)) of the same compound?
Answer: Its kinase still bound, per cent of control is 97%.

Question: What about the kinase still bound, per cent of control (ULK3 (human)) of the same compound?
Answer: Its kinase still bound, per cent of control is 100%.

Question: What about the kinase still bound, per cent of control (ROS1 (human)) of the same compound?
Answer: The kinase still bound, per cent of control was 84%.

Question: And the kinase still bound, per cent of control (TBK1 (human))?
Answer: Its kinase still bound, per cent of control is 100%.
